In general, IC50 refers to the concentration at which inhibition is half-maximal.

Results on three molecules are retold here after US8722909B2, “Antiprotozoal compound derived from coelenterata” (Waseda University, priority 2010, dated 2014).

Converted amounts (≈) assume the structure as drawn.

Format in all cases: cell-based
Test [1] deals with Trypanosoma congolense (bloodstream form). As to the kind of experiment: Antitrypanosomal activity test (TetraColor ONE, 48 hours). How it is done: Trypanosoma congolense (bloodstream form) 2×10^5 cells were inoculated into a 96-well plate, and a sample diluted with a culture medium was then added and cultured for 48 hours. Subsequently, 10 μL of TetraColor ONE (Seikagaku Biobusiness Corporation) was added to each well to measure the viable cell count, and after 4 hours, the absorbance at 450 nm was measured.

The test system of test [2] is EGFP transgenic Leishmania protozoa (LaEGFP). Description: microbe, parasite or virus in culture. How it is done:
EGFP transgenic Leishmania protozoa (LaEGFP, Okuno T et al., Exp. Anim, 52: 109 (2003)) 1×10^5 cells were inoculated into a 96-well plate, and a sample diluted with a culture medium was then added and incubated for 72 hours. Subsequently, the fluorescence intensity within each well was measured using a fluorescence plate reader, and the antileishmanial activity of the test sample was calculated.

The subject of test [3] is human cervical cancer-derived HeLa cells. Description: Cytotoxicity test (MTT), HeLa. The settings on record: isolated compound, 72 hours, read-out: IC50 value against HeLa cells. The protocol:
(§1) A suspension of human cervical cancer-derived HeLa cells and mouse lymphoma-derived P388 cells (1×10^4 cells/mL) 200 μL was dispended into each well of rows A to H, columns 1 to 11 of a 96-well microplate, and the suspension was then incubated for 24 hours at 37° C. Subsequently, 2 μL of a methanol solution of the sample (1 mg/mL) was added to each well of row A, columns 1 to 10 of the 96-well microplate, and 2 μL of adriamycin (1 mg/mL) was added to the well of row A, column 11 as a positive control. Only the culture medium 200 μL was added to each well of rows A to D, column 12, and 200 μL of the aforementioned suspension of 1×10^4 cells/mL was added to each well of rows E to H, column 12. Using a multi-channel pipette, 50 μL of the culture medium was aspirated from the well of each column of row A and added to the well of the corresponding column of row B, and then 50 μL of the culture medium was aspirated from the well of each column of row B and added to the well of the corresponding column of row C. […] Following culturing for 72 hours, 50 μL of 1 mg/mL PBS solution of MTT (3-[4,5-dimethylthiazol-2-yl]-2,5-diphenyl tetrazolium bromide) was added to each well. […] For each well, the absorbance of the colorimetric substrate dissolved in the DMSO was measured using a multi-well plate reader, and the concentration at which half the cells were inhibited (IC50) was determined. […]

For test [4], the system named is Plasmodium falciparum K-1 strain. Description: Antiplasmodial activity test (SYBR GREEN, 48 hours). The settings on record: read-out: IC50 value against the Plasmodium falciparum K-1 strain. The protocol:
Synchronized 0.5% ring stage Plasmodium falciparum K-1 strain 90 μL was added to each well of a 96-well plate, and a sample diluted with a culture medium was then added and incubated for 48 hours. Subsequently, 100 μL of a mixed solution prepared by adding 0.2 μL of SYBR GREEN to 1 mL of lysis buffer (20 mM Tris (pH 7.5), 5 mM EDTA, 0.008% (wt/vol) saponin, 0.08% (vol/vol) Triton X-100) was added to each well, and stirred with a vortex mixer. Following standing for 1 hour in a dark place, the fluorescence was measured with a fluorescence plate reader, using an excitation wavelength of 485 nm and a detection wavelength of 530 nm.

Test [5] has as its system mouse lymphoma-derived P388 cells. Description: Cytotoxicity test (MTT), P388. The conditions noted are these: isolated compound, 72 hours, read-out: IC50 value against P388 cells. How it is done:
as §1

The subject of test [6] is human promyelocytic leukemia-derived HL-60 cells. Description: Cytotoxicity test (MTT), HL-60. The settings on record: isolated compound, 72 hours, read-out: IC50 value against HL-60 cells. How it is done: A suspension of human cervical cancer-derived HeLa cells, human promyelocytic leukemia-derived HL-60 cells, and mouse lymphoma-derived P388 cells (1×10^4 cells/mL) 200 μL was dispended into each well of rows A to H, columns 1 to 11 of a 96-well microplate, and the suspension was then incubated for 24 hours at 37° C. Subsequently, 2 μL of a methanol solution of the sample (1 mg/mL) was added to each well of row A, columns 1 to 10 of the 96-well microplate, and 2 μL of adriamycin (1 mg/mL) was added to the well of row A, column 11 as a positive control. Only the culture medium 200 μL was added to each well of rows A to D, column 12, and 200 μL of the aforementioned suspension of 1×10^4 cells/mL was added to each well of rows E to H, column 12. Using a multi-channel pipette, 50 μL of the culture medium was aspirated from the well of each column of row A and added to the well of the corresponding column of row B, and then 50 μL of the culture medium was aspirated from the well of each column of row B and added to the well of the corresponding column of row C. […] For each well, the absorbance of the colorimetric substrate dissolved in the DMSO was measured using a multi-well plate reader, and the concentration at which half the cells were inhibited (IC50) was determined.

Regarding `C[C@@H]1[C@H](O)[C@@H](C)/C=C/C=C/C=C/C=C/C=C/C=C/C=C/[C@H](O[C@@H]2O[C@H](C)[C@@H](O)[C@H](N)[C@@H]2O)C[C@@H]2O[C@](O)(C[C@@H](O)C[C@@H](O)[C@H](O)CC[C@@H](O)C[C@@H](O)CC(=O)O[C@H]1C)C[C@H](O)[C@H]2C(=O)O` [amphotericin B, reference compound], the “IC50 value against the T. congolense” value in test [1] worked out at 0.811 mg/L (≈ 0.878 µM). Also, the “IC50 value against the LaEGFP (antileishmanial activity)” value in test [2] (LaEGFP, 72 hours) is given as “approximately 20 ng/mL”.

In the case of `CC(=O)O/C=C1\CCC/C(C=O)=C\C[C@@H]2C(C(=O)CC=C(C)C)=CO[C@H](OC(C)=O)[C@@H]12` [cristaxenicin A], the IC50 in test [3] came to 2 mg/L (≈ 4.65 µM); in test [1] (Trypanosoma congolense, read-out: IC50 value against the T. congolense) it was 0.107 mg/L (≈ 0.249 µM); in test [4], 4.6 mg/L (≈ 10.7 µM); in test [5] it was 0.89 mg/L (≈ 2.07 µM); in test [2] (Leishmania, 72 h, read-out: IC50 value against the LaEGFP (antileishmanial activity)), 0.036 mg/L (≈ 0.0836 µM); in test [6], 0.727 mg/L (≈ 1.69 µM).

In the case of cristaxenicin A, the “antiprotozoal activity of HPLC peak fractions (in words)” value in test [2] (reversed phase HPLC peak fractions) is reported as “exhibited antiprotozoal activity”.
